# In ChEMBL document CHEMBL6127089, “Novel non-peptide uracil-derived human gonadotropin-releasing hormone receptor antagonists” (Eur J Med Chem, 2024):
# Molecular target: T1, Gonadotropin-releasing hormone receptor (Homo sapiens, UniProt P30968)
# T1 sequence (P30968 whole entry): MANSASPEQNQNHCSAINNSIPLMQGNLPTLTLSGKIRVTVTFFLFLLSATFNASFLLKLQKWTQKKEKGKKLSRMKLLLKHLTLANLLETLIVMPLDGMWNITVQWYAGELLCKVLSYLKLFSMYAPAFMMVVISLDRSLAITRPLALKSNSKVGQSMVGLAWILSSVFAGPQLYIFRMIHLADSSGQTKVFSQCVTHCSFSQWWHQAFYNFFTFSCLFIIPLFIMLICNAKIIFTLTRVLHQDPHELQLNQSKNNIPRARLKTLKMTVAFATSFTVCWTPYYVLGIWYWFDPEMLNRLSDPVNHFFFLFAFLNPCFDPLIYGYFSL
# Experiment: Antagonist activity at wild type HA-tagged human GnRH1 receptor expressed in HEK293T cells assessed as inhibition of GnRH peptide-stimulated IP1 accumulation by measuring GnRH peptide EC50 at 100 uM pretreated for 1 hr followed by stimulation with GnRH peptide for 1 hr (reference value: 2.5 nM)
# Type: cell-based
row,Compound,EC50
1,COc1cccc(-c2c(N[C@@H](CSCCCC(=O)O)c3ccccc3)nc(=O)n(Cc3c(F)cccc3C(F)(F)F)c2C)c1F,39 nM
2,COc1cccc(-c2c(SC[C@H](NCCCC(=O)O)c3ccccc3)nc(=O)n(Cc3c(F)cccc3C(F)(F)F)c2C)c1F,110 nM
3,COc1cccc(-c2c(C)n(Cc3c(F)cccc3C(F)(F)F)c(=O)n(C[C@H](NCCCC(=O)O)c3ccccc3)c2=O)c1F [ELAGOLIX],0.6 nM
